From PubChem BioAssay AID248 (DTP/NCI, 2004)
Several values for one entry are separate records, joined by “and”; a condition that tells them apart may be missing. Equal values may be shown once. Inconclusive results and toxic doses are left out. No stated cut-off is given here; in the data, active means T/C of 150% or more; inactive means T/C below 125%.

System: L1210 leukemia ip in BDF1 mice, survival T/C
Assay: NCI In Vivo Anticancer Drug Screen. Data for tumor model L1210 Leukemia (intraperitoneal) in B6D2F1 (BDF1) mice
Conditions: endpoint: mean survival time, higher = longer survival
Outline: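 Ratio derived from survival: compound-dosed mice over vehicle-dosed mice, all bearing a transplantable tumor.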

[1] = dose: 50.0 mg/kg/injection, schedule: Q01DX001 (ip), vehicle: carboxymethylcellulose (CMC)
[2] = dose: 100.0 mg/kg/injection, schedule: Q01DX001 (ip), vehicle: carboxymethylcellulose (CMC)
[3] = dose: 200.0 mg/kg/injection, schedule: Q01DX001 (ip), vehicle: carboxymethylcellulose (CMC)
[4] = dose: 400.0 mg/kg/injection, schedule: Q01DX001 (ip), vehicle: carboxymethylcellulose (CMC)
[5] = dose: 100.0 mg/kg/injection, schedule: Q04DX003 (ip), vehicle: Klucel (hydroxypropylcellulose) (HPC)
[6] = dose: 200.0 mg/kg/injection, schedule: Q04DX003 (ip), vehicle: Klucel (hydroxypropylcellulose) (HPC)
[7] = dose: 400.0 mg/kg/injection, schedule: Q04DX003 (ip), vehicle: Klucel (hydroxypropylcellulose) (HPC)
[8] = dose: 6.25 mg/kg/injection, schedule: Q01DX009 (ip), vehicle: Klucel (hydroxypropylcellulose) (HPC)
[9] = dose: 12.5 mg/kg/injection, schedule: Q01DX009 (ip), vehicle: Klucel (hydroxypropylcellulose) (HPC)
[10] = dose: 100.0 mg/kg/injection, schedule: Q01DX009 (ip), vehicle: Klucel (hydroxypropylcellulose) (HPC)
[11] = dose: 200.0 mg/kg/injection, schedule: Q01DX009 (ip), vehicle: Klucel (hydroxypropylcellulose) (HPC)
[12] = dose: 100.0 mg/kg/injection, schedule: Q01DX001 (ip), vehicle: saline
[13] = dose: 200.0 mg/kg/injection, schedule: Q01DX001 (ip), vehicle: saline
[14] = dose: 400.0 mg/kg/injection, schedule: Q01DX001 (ip), vehicle: saline
[15] = dose: 100.0 mg/kg/injection, schedule: Q01DX001 (ip), vehicle: Klucel (hydroxypropylcellulose) (HPC)
[16] = dose: 200.0 mg/kg/injection, schedule: Q01DX001 (ip), vehicle: Klucel (hydroxypropylcellulose) (HPC)
[17] = dose: 400.0 mg/kg/injection, schedule: Q01DX001 (ip), vehicle: Klucel (hydroxypropylcellulose) (HPC)

Measured: T/C

C1=CC([P+](Cc2ccccc2)(c2ccccc2)c2ccccc2)CC1 (centres undefined)
inactive: dose: 6.25 mg/kg/injection, schedule: Q04DX003 (ip), vehicle: saline 95 % of control | dose: 12.5 mg/kg/injection, schedule: Q04DX003 (ip), vehicle: saline 90 % of control | dose: 25.0 mg/kg/injection, schedule: Q04DX003 (ip), vehicle: saline 96 % of control | dose: 50.0 mg/kg/injection, schedule: Q04DX003 (ip), vehicle: saline 93 % of control and 96 % of control

CCCO[Si](C)(C)CCl
inactive: [1] 92 % of control | [2] 92 % of control | [3] 92 % of control | [4] 98 % of control

Cc1ccc(S(=O)(=O)CC(=O)c2ccccc2)cc1
inactive: [5] 100 % of control | [6] 107 % of control | [7] 102 % of control

OCC1OC(n2c3ccccc3c3ccccc32)C(O)C1O (centres undefined)
inactive: dose: 60.0 mg/kg/injection, schedule: Q04DX002 (ip), vehicle: DMSO 97 % of control | dose: 120.0 mg/kg/injection, schedule: Q04DX002 (ip), vehicle: DMSO 102 % of control

c1ccc(CC(c2ccccc2)(c2ccccc2)c2ccccc2)cc1
inactive: dose: 25.6 mg/kg/injection, schedule: Q04DX002 (ip), vehicle: saline with Tween-80 89 % of control | dose: 64.0 mg/kg/injection, schedule: Q04DX002 (ip), vehicle: saline with Tween-80 93 % of control | dose: 160.0 mg/kg/injection, schedule: Q04DX002 (ip), vehicle: saline with Tween-80 93 % of control | dose: 400.0 mg/kg/injection, schedule: Q04DX002 (ip), vehicle: saline with Tween-80 112 % of control

Cc1cc(O)ccc1C1=NCC(C)(C)S1
inactive: dose: 100.0 mg/kg/injection, schedule: Q04DX002 (ip), vehicle: saline 93 % of control | dose: 200.0 mg/kg/injection, schedule: Q04DX002 (ip), vehicle: saline 100 % of control | dose: 400.0 mg/kg/injection, schedule: Q04DX002 (ip), vehicle: saline 103 % of control

NC(=O)CSc1nnc(SCC(N)=O)s1
inactive: [5] 106 % of control | [6] 101 % of control | [7] 90 % of control

CC1(c2ccc(Cl)cc2)NC(=O)N(CC(=O)Nc2ccccc2)C1=O (centres undefined)
inactive: dose: 100.0 mg/kg/injection, schedule: Q04DX003 (ip), vehicle: acetone 101 % of control | dose: 200.0 mg/kg/injection, schedule: Q04DX003 (ip), vehicle: acetone 90 % of control | dose: 400.0 mg/kg/injection, schedule: Q04DX003 (ip), vehicle: acetone 93 % of control

Cc1ccc(S(=O)(=O)Nc2ccccc2SSc2ccccc2NS(=O)(=O)c2ccc(C)cc2)cc1
inactive: dose: 100.0 mg/kg/injection, schedule: Q01DX009 (ip), vehicle: saline with Tween-80 97 % of control | dose: 100.0 mg/kg/injection, schedule: Q04DX003 (ip), vehicle: saline with Tween-80 101 % of control | dose: 200.0 mg/kg/injection, schedule: Q01DX009 (ip), vehicle: saline with Tween-80 97 % of control | dose: 200.0 mg/kg/injection, schedule: Q04DX003 (ip), vehicle: saline with Tween-80 97 % of control | dose: 400.0 mg/kg/injection, schedule: Q01DX009 (ip), vehicle: saline with Tween-80 90 % of control | dose: 400.0 mg/kg/injection, schedule: Q04DX003 (ip), vehicle: saline with Tween-80 95 % of control

CCCCN1CCN(CCCC)C1=O
inactive: dose: 100.0 mg/kg/injection, schedule: Q04DX002 (ip), vehicle: Klucel (hydroxypropylcellulose) (HPC) 90 % of control | dose: 200.0 mg/kg/injection, schedule: Q04DX002 (ip), vehicle: Klucel (hydroxypropylcellulose) (HPC) 90 % of control

CC(Cc1ccccc1)N1C(=O)C=CC1=O (centres undefined)
inactive: dose: 3.12 mg/kg/injection, schedule: Q01DX009 (ip), vehicle: Klucel (hydroxypropylcellulose) (HPC) 92 % of control | [8] 101 % of control | [9] 93 % of control and 90 % of control

CCc1ccccc1NC(=O)Nc1ccc(S(N)(=O)=O)cc1
inactive: [10] 98 % of control | [11] 97 % of control | dose: 400.0 mg/kg/injection, schedule: Q01DX009 (ip), vehicle: Klucel (hydroxypropylcellulose) (HPC) 103 % of control

N#CC(C#N)=Cc1ccccc1[N+](=O)[O-]
inactive: dose: 25.0 mg/kg/injection, schedule: Q01DX Z (ip), vehicle: methylcellulose (MC) 98 % of control | dose: 50.0 mg/kg/injection, schedule: Q01DX Z (ip), vehicle: methylcellulose (MC) 88 % of control

COCCO
inactive: [12] 105 % of control | [13] 103 % of control | [14] 105 % of control

COC(=O)Nc1ccccc1
inactive: [15] 97 % of control | dose: 100.0 mg/kg/injection, schedule: Q04DX002 (ip), vehicle: gum acacia 113 % of control | [16] 98 % of control | dose: 200.0 mg/kg/injection, schedule: Q04DX002 (ip), vehicle: gum acacia 100 % of control | [17] 101 % of control | dose: 400.0 mg/kg/injection, schedule: Q04DX002 (ip), vehicle: gum acacia 103 % of control

N#CC(C#N)=Cc1cccc([N+](=O)[O-])c1
inactive: [1] 102 % of control | [2] 102 % of control | [10] 97 % of control | [5] 102 % of control | [7] 106 % of control

CN(C)c1ccc2oc(=O)c3ccccc3c2c1
inactive: [1] 100 % of control | [2] 92 % of control | [3] 100 % of control | [4] 94 % of control

COc1cccc2c1C(=O)c1c(O)c3c(c(O)c1C2=O)CC(O)(/C(C)=N/NC(=O)c1ccccc1)CC3OC1CC(N)C(O)C(C)O1 (centres undefined)
inactive: dose: 200.0 mg/kg/injection, schedule: Q04DX003 (ip), vehicle: water 124 % of control

OCC1c2ccccc2C(CO)c2c1ccc1ccccc21 (centres undefined)
inactive: [15] 98 % of control | [16] 98 % of control | [17] 100 % of control

NCc1ccccn1
inactive: [12] 98 % of control | [14] 95 % of control

N#CCC(N)C(=O)O (centres undefined)
inactive: dose: 50.0 mg/kg/injection, schedule: Q01DX001 (ip), vehicle: saline 90 % of control | [12] 96 % of control | [13] 96 % of control

CC1=CC(=O)CC(=O)O1
inactive: [15] 103 % of control | [10] 96 % of control | [5] 97 % of control | [16] 108 % of control | [11] 94 % of control | [6] 101 % of control | [17] 103 % of control | [7] 95 % of control

OC(c1ccccc1)(c1ccccc1)C1CCCCC1C(O)(c1ccccc1)c1ccccc1 (centres undefined)
inactive: dose: 100.0 mg/kg/injection, schedule: Q01DX009 (ip), vehicle: saline 93 % of control | dose: 200.0 mg/kg/injection, schedule: Q01DX009 (ip), vehicle: saline 93 % of control | dose: 400.0 mg/kg/injection, schedule: Q01DX009 (ip), vehicle: saline 89 % of control

Nc1ccccc1Nc1ccc(-c2ccc(Nc3ccccc3N)cc2)cc1
inactive: [12] 94 % of control | [13] 100 % of control | [14] 92 % of control

O=C(N/N=C/c1c(Cl)cccc1Cl)C1CCCO1 (centres undefined)
inactive: [8] 96 % of control | [9] 96 % of control | dose: 25.0 mg/kg/injection, schedule: Q01DX009 (ip), vehicle: Klucel (hydroxypropylcellulose) (HPC) 95 % of control and 91 % of control

Nc1ccnn2nnnc12
inactive: [12] 97 % of control | [13] 91 % of control | [14] 97 % of control
